Patent publication US11162944B2, “Compositions and methods” (priority 2015, dated 2021)
Marks after values point to notes of the source that are not given here.

Assays:
[1] = system: biomarker (antibody) in serum from patients with suspected TB (tuberculosis); assay: ELISA of 64 serum samples on three synthetic antigens (Example 6); assay type: binding, human; conditions: dilution 1 in 80
Protocol: ELISA assays were carried out as known to those practiced in the art using 96 well plates. In the first procedure, the ELISA assay was carried out on 96-well microplates and the purified antigens were dissolved in n-hexane at a concentration of 62.5 μg/mL. The antigen solution was diluted and 50 μL was placed in each well. The plates were left to dry at room temperature overnight. Blocking was done with 0.5% casein/PBS (400 μL/well) and the plates were left to incubate at 25° C. for 1 h. The casein was aspirated using the LT-3500 plate washer and the plates flicked dry. Then the serum (1:20 dilution in 0.5% casein/PBS, pH 7.4) was added to the plate (50 μL/well) and left to incubate at 25° C. for 1 h. The serum was aspirated and washed three times with (casein/PBS, 400 μL/well) using the same plate washer and the plates were flicked dry again. After that, the secondary antibody, in the example given IgG Fc (1:1000 dilution in 0.5% casein/PBS) was added to the plate (50 μL/well) and the plates were left to incubate at 25° C. for 30 min. The plates were washed three times again with casein/PBS (400 μL/well) and dried. Then, the OPD substrate was added to the plates, which were left to incubate at 25° C. for 30 min. Finally, 2.5 M H2SO4 (50 μL/well) was added and the absorbances of each well were read at 492, 450 and 630 nm using an LT-4000 plate reader.
Human serum used in this work was from the WHO sample bank. In this case, all the patients had presented at a hospital with the symptoms of TB. Clinical diagnosis was made on the basis of a series of standard assays.
All measurements were taken as four replicates unless otherwise stated. These were averaged to provide the data in the tables which are for the value at 492 nm.
A set of 64 samples of serum from patients attending a clinic with suspected TB (tuberculosis) in a high burden TB population was examined using ELISA. Samples 1-9 had been diagnosed as positive for infection with tuberculosis (TB+) on the basis of a range of assays including sputum smear and culture, and samples 10-64 as negative for infection with tuberculosis (TB−). An ELISA assay was carried out with three synthetic antigens having the structures:
Cut-off values were set to identify all the positive samples with all three antigens, and the false positives were then identified in Table 3. […] 53 of the 55 negatives were correctly identified giving a specificity of 96%. The shaded results denote a result which is above the cut-off set for that particular antigen assay.

[2] = system: wild-type BMDCs; assay: IL-6 secretion by bone marrow-derived dendritic cells, cytokine-specific ELISA; assay type: cell-based, mice; conditions: antigens at 100 μg/ml coated on plate, ISO as solvent, FIG. 1
Protocol: The concentrations of cytokines in the cell-free medium from stimulation of bone marrow-derived dendritic cells were determined using standard cytokine-specific ELISA. BMDCs were generated from mice, by flushing out the femurs of mice into complete medium and pipetting vigorously to make a single-cell suspension. The glycolipids were coated to the bottom of 96 micro-well plates (100 μg/ml). BMDCs were added, and after 6 or 48 hours of incubation the supernatants were harvested.
The first experiment was the IL-6 secretion by wild-type BMDCs from mice using compounds B, D, C and H (shown below) as antigens at 100 μg/ml, and isopropyl alcohol (ISO) as a solvent. Commercial trehalose-6,6-dimycolate (TDM), lipopolysaccharides (LPS), and trehalose-6,6-dibehenate (TDB) were used as a controls.

CCCCCCCCCCCCCCCCCCCCCCCC[C@@H](C(=O)OC[C@H]1O[C@H](OC)[C@@H](O)[C@@H]1O)[C@H](O)CCCCCCCCCCCC1CC1CCCCCCCCCCCCCC[C@H]1C[C@H]1CCCCCCCCCCCCCCCCCCCC (some centres unmarked) [Antigen 3]
ELISA absorbance at 492 nm ([1]; sample 1 (TB+)): 0.74*
ELISA absorbance at 492 nm ([1]; sample 2 (TB+)): 0.76*
ELISA absorbance at 492 nm ([1]; sample 3 (TB+)): 0.99*
ELISA absorbance at 492 nm ([1]; sample 4 (TB+)): 0.97*
ELISA absorbance at 492 nm ([1]; sample 5 (TB+)): 0.99*
ELISA absorbance at 492 nm ([1]; sample 6 (TB+)): 1.39*
ELISA absorbance at 492 nm ([1]; sample 7 (TB+)): 1.97*
ELISA absorbance at 492 nm ([1]; sample 8 (TB+)): 1.67*
ELISA absorbance at 492 nm ([1]; sample 9 (TB+)): 1.09*
ELISA absorbance at 492 nm ([1]; sample 10 (TB−)): 0.59
ELISA absorbance at 492 nm ([1]; sample 11 (TB−)): 0.92*
ELISA absorbance at 492 nm ([1]; sample 12 (TB−)): 0.84*
ELISA absorbance at 492 nm ([1]; sample 13 (TB−)): 0.60
ELISA absorbance at 492 nm ([1]; sample 14 (TB−)): 1.30*
ELISA absorbance at 492 nm ([1]; sample 15 (TB−)): 0.64
ELISA absorbance at 492 nm ([1]; sample 16 (TB−)): 0.56
ELISA absorbance at 492 nm ([1]; sample 17 (TB−)): 0.81*
ELISA absorbance at 492 nm ([1]; sample 18 (TB−)): 0.68
ELISA absorbance at 492 nm ([1]; sample 19 (TB−)): 0.71*
ELISA absorbance at 492 nm ([1]; sample 20 (TB−)): 1.03*
ELISA absorbance at 492 nm ([1]; sample 21 (TB−)): 0.61
ELISA absorbance at 492 nm ([1]; sample 22 (TB−)): 0.66
ELISA absorbance at 492 nm ([1]; sample 23 (TB−)): 0.81*
ELISA absorbance at 492 nm ([1]; sample 24 (TB−)): 0.62
ELISA absorbance at 492 nm ([1]; sample 25 (TB−)): 0.21
ELISA absorbance at 492 nm ([1]; sample 26 (TB−)): 0.72*
ELISA absorbance at 492 nm ([1]; sample 27 (TB−)): 0.61
ELISA absorbance at 492 nm ([1]; sample 28 (TB−)): 0.38
ELISA absorbance at 492 nm ([1]; sample 29 (TB−)): 0.41
ELISA absorbance at 492 nm ([1]; sample 30 (TB−)): 0.39
ELISA absorbance at 492 nm ([1]; sample 31 (TB−)): 0.51
ELISA absorbance at 492 nm ([1]; sample 32 (TB−)): 0.91*
ELISA absorbance at 492 nm ([1]; sample 33 (TB−)): 0.42
ELISA absorbance at 492 nm ([1]; sample 34 (TB−)): 0.49
ELISA absorbance at 492 nm ([1]; sample 35 (TB−)): 0.38
ELISA absorbance at 492 nm ([1]; sample 36 (TB−)): 0.28
ELISA absorbance at 492 nm ([1]; sample 37 (TB−)): 0.55
ELISA absorbance at 492 nm ([1]; sample 38 (TB−)): 0.52
ELISA absorbance at 492 nm ([1]; sample 39 (TB−)): 0.35
ELISA absorbance at 492 nm ([1]; sample 40 (TB−)): 0.35
ELISA absorbance at 492 nm ([1]; sample 41 (TB−)): 0.66
ELISA absorbance at 492 nm ([1]; sample 42 (TB−)): 0.55
ELISA absorbance at 492 nm ([1]; sample 43 (TB−)): 0.30
ELISA absorbance at 492 nm ([1]; sample 44 (TB−)): 0.98*
ELISA absorbance at 492 nm ([1]; sample 45 (TB−)): 0.43
ELISA absorbance at 492 nm ([1]; sample 46 (TB−)): 0.31
ELISA absorbance at 492 nm ([1]; sample 47 (TB−)): 0.56
ELISA absorbance at 492 nm ([1]; sample 48 (TB−)): 0.32
ELISA absorbance at 492 nm ([1]; sample 49 (TB−)): 0.51
ELISA absorbance at 492 nm ([1]; sample 50 (TB−)): 0.37
ELISA absorbance at 492 nm ([1]; sample 51 (TB−)): 0.21
ELISA absorbance at 492 nm ([1]; sample 52 (TB−)): 0.36
ELISA absorbance at 492 nm ([1]; sample 53 (TB−)): 0.26
ELISA absorbance at 492 nm ([1]; sample 54 (TB−)): 0.27
ELISA absorbance at 492 nm ([1]; sample 55 (TB−)): 0.27
ELISA absorbance at 492 nm ([1]; sample 56 (TB−)): 0.73*
ELISA absorbance at 492 nm ([1]; sample 57 (TB−)): 0.37
ELISA absorbance at 492 nm ([1]; sample 58 (TB−)): 0.41
ELISA absorbance at 492 nm ([1]; sample 59 (TB−)): 0.45
ELISA absorbance at 492 nm ([1]; sample 60 (TB−)): 0.44
ELISA absorbance at 492 nm ([1]; sample 61 (TB−)): 0.41
ELISA absorbance at 492 nm ([1]; sample 62 (TB−)): 0.30
ELISA absorbance at 492 nm ([1]; sample 63 (TB−)): 0.25
ELISA absorbance at 492 nm ([1]; sample 64 (TB−)): 0.29

CCCCCCCCCCCCCCCCCCCCCCCCC(C(=O)OCC1OC(OCC2OC(OC)C(O)C2OC2OC(COC(=O)C(CCCCCCCCCCCCCCCCCCCCCCCC)C(O)CCCCCCCCCCCC3CC3CCCCCCCCCCCCCCC3CC3CCCCCCCCCCCCCCCCCCCC)C(O)C2O)C(O)C1O)C(O)CCCCCCCCCCCC1CC1CCCCCCCCCCCCCCC1CC1CCCCCCCCCCCCCCCCCCCC (centres unmarked) [H]
IL-6 secretion by wild-type BMDCs [2]: good level of stimulation
